Data as given in patent US20250152585A1, “PHARMACEUTICAL COMPOUND” (Duke Street Bio Limited, priority 2022, published 2025).
Where two headings read alike, the source gives them in different places.

Key:
[1] = molecular target: T1, full length N-terminally FLAG-tagged PARP1 (Homo sapiens, UniProt P09874); experiment: PARP1 probe displacement HTRF assay; conditions: for Selectivity: PARP1 over PARP2, ratio Kd (PARP2)/Kd (PARP1); for Kd: binned Kd
[2] = molecular target: T2, N-terminally FLAG-tagged PARP2 (amino acids 1-583) (Homo sapiens, UniProt Q9UGN5); experiment: PARP2 probe displacement HTRF assay; assay type: binding; conditions: binned Kd
T2 construct: N-terminally FLAG-tagged PARP2 (amino acids 1-583)
Protocol: Data analysis was performed identical as for PARP1.

[3] = molecular target: T1, full length N-terminally FLAG-tagged PARP1; experiment: PARP1 biochemical DELFIA assay (auto-PARylation); set-up: recombinant full length human N-terminally FLAG-tagged PARP1
[4] = read-out: PARP1 HTRF, PARP1 probe displacement HTRF
[5] = binned IC50, PARP1 biochemical DELFIA assay
[6] = read-out: PARP1 HTRF, probe displacement HTRF
[7] = binned IC50, biochemical auto-PARylation assay
[8] = PARP1 HTRF, PARP1 probe displacement HTRF

T1 sequence (P09874 whole entry, the tested form may be a part): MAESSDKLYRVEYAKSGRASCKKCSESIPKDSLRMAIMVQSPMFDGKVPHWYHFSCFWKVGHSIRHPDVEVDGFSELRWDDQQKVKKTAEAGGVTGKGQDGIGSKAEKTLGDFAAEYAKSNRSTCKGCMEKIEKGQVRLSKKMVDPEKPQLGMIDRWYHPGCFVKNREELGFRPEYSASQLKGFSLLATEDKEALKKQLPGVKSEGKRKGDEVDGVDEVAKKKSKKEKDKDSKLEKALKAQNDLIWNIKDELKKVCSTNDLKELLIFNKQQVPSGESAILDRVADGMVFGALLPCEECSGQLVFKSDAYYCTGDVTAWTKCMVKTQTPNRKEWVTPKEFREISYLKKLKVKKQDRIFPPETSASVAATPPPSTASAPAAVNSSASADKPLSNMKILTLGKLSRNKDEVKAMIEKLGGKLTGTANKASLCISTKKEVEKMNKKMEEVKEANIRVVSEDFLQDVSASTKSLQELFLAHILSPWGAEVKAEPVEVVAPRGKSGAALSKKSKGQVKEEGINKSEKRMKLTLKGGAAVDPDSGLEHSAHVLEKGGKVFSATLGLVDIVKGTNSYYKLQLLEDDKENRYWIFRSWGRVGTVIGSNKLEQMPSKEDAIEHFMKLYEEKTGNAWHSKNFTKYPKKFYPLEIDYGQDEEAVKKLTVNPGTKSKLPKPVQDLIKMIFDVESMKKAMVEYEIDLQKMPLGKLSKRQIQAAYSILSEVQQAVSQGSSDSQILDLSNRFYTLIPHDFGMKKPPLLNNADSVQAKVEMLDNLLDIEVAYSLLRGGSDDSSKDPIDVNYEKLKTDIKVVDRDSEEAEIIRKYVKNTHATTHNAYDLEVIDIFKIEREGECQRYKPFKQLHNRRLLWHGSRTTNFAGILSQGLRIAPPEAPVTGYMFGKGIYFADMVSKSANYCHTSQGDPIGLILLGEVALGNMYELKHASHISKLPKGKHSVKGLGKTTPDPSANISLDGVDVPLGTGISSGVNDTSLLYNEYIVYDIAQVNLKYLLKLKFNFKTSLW
T2 sequence (Q9UGN5 whole entry, the tested form may be a part): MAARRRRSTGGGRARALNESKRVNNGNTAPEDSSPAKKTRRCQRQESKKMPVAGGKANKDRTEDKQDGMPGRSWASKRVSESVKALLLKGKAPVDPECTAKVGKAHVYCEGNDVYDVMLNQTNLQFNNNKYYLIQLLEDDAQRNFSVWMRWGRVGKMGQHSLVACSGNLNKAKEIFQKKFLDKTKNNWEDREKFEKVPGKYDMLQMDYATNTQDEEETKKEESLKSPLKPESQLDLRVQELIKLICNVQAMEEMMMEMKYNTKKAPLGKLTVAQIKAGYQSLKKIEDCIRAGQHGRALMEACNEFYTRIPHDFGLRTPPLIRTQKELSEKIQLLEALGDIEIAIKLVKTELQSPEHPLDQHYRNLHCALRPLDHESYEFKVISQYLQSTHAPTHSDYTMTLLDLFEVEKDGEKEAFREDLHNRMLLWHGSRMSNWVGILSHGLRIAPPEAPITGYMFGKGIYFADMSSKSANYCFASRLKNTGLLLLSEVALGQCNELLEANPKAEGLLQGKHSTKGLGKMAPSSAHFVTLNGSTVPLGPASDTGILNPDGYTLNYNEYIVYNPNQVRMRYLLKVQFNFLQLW

Row | SMILES | Selectivity ([1]; probe displacement HTRF) | Kd [1, 4] [nM] | Kd ([2]; PARP2 probe displacement HTRF) [nM] | IC50 [3, 5] [nM] | Kd [1, 6] [nM] | Kd ([2]; probe displacement HTRF) [nM] | IC50 [3, 7] [nM] | Kd [1, 8] [nM]
1 | CNC(=O)c1ccc(N2CCC(N3CCC(c4nc5c(F)cc(F)cc5c(=O)[nH]4)C3)CC2)cn1 (single isomer, unassigned) [Compound 181a] | + (+ indicates a value of 10 to less than 50) | 10 to 100 | 100 to 1000 | 10 to 100 |  |  |  | 
2 | CCc1ccc(C2CCN(C3CCN(c4ccc(C(=O)NC)nn4)CC3)C2)[nH]c1=O (single isomer, unassigned) [Compound 210b] | +++ (+++ indicate a value of at least 100) | < 10 | 1000 to 10000 | < 10 |  |  |  | 
3 | CNC(=O)c1ccc(N2CCC(N3CCC(c4nc5c(c(=O)[nH]4)CCCC5)C3)CC2)cn1 (single isomer, unassigned) [Compound 155a] | + (+ indicates a value of 10 to less than 50) | 10 to 100 | 100 to 1000 | 10 to 100 |  |  |  | 
4 | CC(=O)Nc1ccc(N2CCC(N3CCC(c4cc5ccccc5c(=O)[nH]4)C3)CC2)cc1 (single isomer, unassigned) [Compound 289a] | − (− indicates a value of less than 10) |  |  |  | 100 to 1000 | 1000 to 10000 | 100 to 1000 | 
5 | CCc1ccc(C2CCN(C3CCN(c4ccc(C(=O)NC)cc4)CC3)C2)[nH]c1=O (single isomer, unassigned) [Compound 355a] | − (− indicates a value of less than 10) |  |  |  | 100 to 1000 | 1000 to 10000 | 100 to 1000 | 
6 | Cc1n[nH]c(-c2ccc(N3CCC(N4CCC(c5nc6ccccc6c(=O)[nH]5)C4)CC3)cn2)n1 (racemic) [Compound 275rac] | + (+ indicates a value of 10 to less than 50) |  |  |  | < 10 | 100 to 1000 | < 10 | 
7 | CNC(=O)c1cnc(N2CCC(N3CCC(c4cc5ccccc5c(=O)[nH]4)C3)CC2)s1 (racemic) [Compound 253rac] | + (+ indicates a value of 10 to less than 50) |  |  |  | 10 to 100 | > 10000 | 10 to 100 | 
8 | CNC(=O)c1ccc(N2CCC(n3cc(-c4nc5ccccc5c(=O)[nH]4)cn3)CC2)cn1 [Compound 17, N-methyl-5-(4-(4-(4-oxo-3,4-dihydroquinazolin-2-yl)-1H-pyrazol-1-yl)piperidin-1-yl)picolinamide] | +++ (+++ indicate a value of at least 100) |  | > 10000 | 10 to 100 |  |  |  | 10 to 100
9 | N#Cc1nc(C(=O)NC2CC2)ccc1N1CCC(N2CCC(c3cc4cccc(F)c4c(=O)[nH]3)C2)CC1 (single isomer, unassigned) [Compound 410a] | +++ (+++ indicate a value of at least 100) |  |  |  | < 10 | 100 to 1000 | < 10 | 
10 | CCc1ccc(C2CCN(C3CCN(c4cnc(C(=O)NC)cc4F)CC3)C2)[nH]c1=O (racemic) [Compound 257rac] | +++ (+++ indicate a value of at least 100) |  |  |  | < 10 | 1000 to 10000 | < 10 | 
11 | CNC(=O)c1ccc(N2CCC(N3CCC(c4cc5cccc(OC)c5c(=O)[nH]4)C3)CC2)cn1 (single isomer, unassigned) [Compound 249b] | + (+ indicates a value of 10 to less than 50) |  |  |  | 100 to 1000 | > 10000 | 100 to 1000 | 
12 | CC(=O)Nc1ccc(N2CCC(N3CCC(c4cc5ccccc5c(=O)[nH]4)C3)CC2)cn1 (single isomer, unassigned) [Compound 306a] | + (+ indicates a value of 10 to less than 50) |  |  |  | 100 to 1000 | 1000 to 10000 | 100 to 1000 | 
13 | CNC(=O)c1ccc(N2CCC(N3CCC(c4nc5c(c(=O)[nH]4)CCCN5C)C3)CC2)cn1 (single isomer, unassigned) [Compound 208a, N-methyl-5-(4-(3-(8-methyl-4-oxo-3,4,5,6,7,8-hexahydropyrido[2,3-d]pyrimidin-2-yl)pyrrolidin-1-yl)piperidin-1-yl)picolinamide] | + (+ indicates a value of 10 to less than 50) |  | 100 to 1000 | < 10 |  |  |  | 10 to 100
14 | CNC(=O)c1ccc(N2CCC(N3CC(c4cc5cccc(F)c5c(=O)[nH]4)CC3=O)CC2)cn1 (racemic) [Compound 362rac] | +++ (+++ indicate a value of at least 100) |  |  |  | < 10 | 1000 to 10000 | < 10 | 
15 | CNC(=O)c1ccc(N2CCC(N3CCC(c4nc5cc(F)ccc5c(=O)[nH]4)C3)CC2)cn1 (single isomer, unassigned) [Compound 92b] | +++ (+++ indicate a value of at least 100) | < 10 | 1000 to 10000 | 10 to 100 |  |  |  | 
16 | N#Cc1ccc(N2CCC(N3CCC(c4nc5ccccc5c(=O)[nH]4)C3)CC2)cc1 (single isomer, unassigned) [Compound 34a] | − (− indicates a value of less than 10) | 10 to 100 | 100 to 1000 | 10 to 100 |  |  |  | 
17 | CC(=O)Nc1ccc(N2CCC(N3CCC(c4nc5ccccc5c(=O)[nH]4)C3)CC2)cn1 (single isomer, unassigned) [Compound 262a] | − (− indicates a value of less than 10) |  |  |  | 1000 to 10000 | 1000 to 10000 | 100 to 1000 | 
18 | CNC(=O)c1cnc(N2CCC(N3CCC(c4nc5ccccc5c(=O)[nH]4)C3)CC2)cn1 (single isomer, unassigned) [Compound 96a] | + (+ indicates a value of 10 to less than 50) | 10 to 100 | 1000 to 10000 | 10 to 100 |  |  |  | 
19 | CCc1cc(C)c(C2CCN(C3CCN(c4ccc(C(=O)NC)nc4)CC3)C2)[nH]c1=O (single isomer, unassigned) [Compound 363b] | +++ (+++ indicate a value of at least 100) |  |  |  | < 10 | 1000 to 10000 | < 10 | 
20 | CNC(=O)c1ccc(N2CCC(N3CCC(c4cc5c(F)cccc5c(=O)[nH]4)C3)CC2)cn1 (single isomer, unassigned) [Compound 172a] | +++ (+++ indicate a value of at least 100) | < 10 | 1000 to 10000 | < 10 |  |  |  | 
21 | CNC(=O)c1ccc(N2CCC(N3CCCC(Cc4nc5ccccc5c(=O)[nH]4)C3)CC2)cn1 (single isomer, unassigned) [Compound 57b] | + (+ indicates a value of 10 to less than 50) | 100 to 1000 | > 10000 | 100 to 1000 |  |  |  | 
22 | CCc1ccc(C2CCN(C3CCN(c4ccc(OC(F)F)nc4)CC3)C2)[nH]c1=O (single isomer, unassigned) [Compound 382a] | + (+ indicates a value of 10 to less than 50) |  |  |  | 100 to 1000 | > 10000 | 100 to 1000 | 
23 | CNC(=O)c1ccc(N2CCC(N3CCCC(c4nc5c(c(C(F)(F)F)nn5C)c(=O)[nH]4)C3)CC2)cn1 (single isomer, unassigned) [Compound 190b] | ++ (++ indicates a value of 50 to less than 100) | < 10 | 10 to 100 | < 10 |  |  |  | 
24 | CNC(=O)c1ccc(N2CCC(N3CCC(c4nc5c(c(C(F)(F)F)nn5C)c(=O)[nH]4)C3)CC2)cn1 (single isomer, unassigned) [Compound 187a] | − (− indicates a value of less than 10) | 10 to 100 | 100 to 1000 | 10 to 100 |  |  |  | 
25 | CNC(=O)c1ccc(N2CCC(N3CCCC(C)(c4nc5ccccc5c(=O)[nH]4)C3)CC2)cn1 (single isomer, unassigned) [Compound 66b] | − (− indicates a value of less than 10) | 1000 to 10000 | > 10000 | 1000 to 10000 |  |  |  | 
26 | CNC(=O)c1ccc(N2CCC(N3CCC(c4nc5cc(F)ccc5c(=O)[nH]4)C3)CC2)cn1 (single isomer, unassigned) [Compound 92a] | + (+ indicates a value of 10 to less than 50) | 100 to 1000 | > 10000 | 100 to 1000 |  |  |  | 
27 | CNC(=O)c1ccc(N2CCC(N3CCC(c4nc5ccccc5c(=O)[nH]4)C3)CC2)c(C(F)(F)F)n1 (single isomer, unassigned) [Compound 139a] | +++ (+++ indicate a value of at least 100) | < 10 | 1000 to 10000 | < 10 |  |  |  | 
